What was measured:
[1] = tested on: unfractionated human bone marrow cells; test: Toxicity in normal bone marrow cells (PI and annexin V, flow cytometry); type: cell-based; conditions: 5-20 μg/ml, 24 to 48 h
Protocol: The RPMI-8226 cell line was supplied by W. Dalton (Univ. Arizona). U266 and H929 cell lines were obtained from the American Type Culture Collection (Rockville, Md.). Cell lines were grown in RPMI 1640 (Gibco, Grand Island, N.Y.) supplemented with 5% fetal bovine serum (Hyclone, Logan, Utah). Normal bone marrow samples were obtained from allogeneic transplant donors at the Fred Hutchison Cancer Research Center, Seattle, Wash., with appropriate patient consent and Internal Review Board approval. Primary cells were maintained in Iscove's medium (Gibco) supplemented with 10% bovine calf serum, 100 ng/ml stem cell factor (Amgen, Thousand Oaks, Calif.), and 50 ng/ml interleukin-3 (Biosource, Camarillo, Calif.).
Cell survival was assayed by exclusion of propidium iodide (PI; 10 μg/ml) by unfixed cells. Annexin V-FITC (Pharmingen) or 3, 3′-dihexyloxacarbocyanine iodide (DiOC6(3); Molecular Probes) staining was analyzed together with PI to discriminate early apoptotic cells. Apoptotic cells were also measured as sub-G1 events among ethanol-fixed cells stained with 10 μg/ml PI. All cell samples were analyzed using a benchtop FACSCalibur™ (Becton Dickinson, San Jose, Calif.). Flow data were analyzed using MultiCycle AV software (Phoenix Flow Systems). For intracellular pH measurements, cell pellets were washed once and resuspended in 2 ml of HEPES-buffered medium (no phenol red and no serum). […]

RPMI-8226 cells [2] = test: Metabolic studies: glucose depletion from media and intracellular pH; type: cell-based, human
Protocol: Cell survival was assayed by exclusion of propidium iodide (PI; 10 μg/ml) by unfixed cells. Annexin V-FITC (Pharmingen) or 3, 3′-dihexyloxacarbocyanine iodide (DiOC6(3); Molecular Probes) staining was analyzed together with PI to discriminate early apoptotic cells. Apoptotic cells were also measured as sub-G1 events among ethanol-fixed cells stained with 10 μg/ml PI. All cell samples were analyzed using a benchtop FACSCalibur™ (Becton Dickinson, San Jose, Calif.). Flow data were analyzed using MultiCycle AV software (Phoenix Flow Systems). For intracellular pH measurements, cell pellets were washed once and resuspended in 2 ml of HEPES-buffered medium (no phenol red and no serum). Carboxy-SNARF-1-AM (Molecular Probes, 1 mM stock in DMSO, stored at −20° C.) was added to a final concentration of 10 μM, and the cells were incubated for 30 min at 37° C. Following incubation with SNARF, cells were sedimented and the pellets were held on ice. Immediately before analysis, pellets were resuspended in […] (HBSS; experimental buffer) or high-[K+] buffer containing nigericin (calibration samples).
The analysis by flow cytometry (Becton Dickinson FACScan™) was done with excitation at 488 nm, and emission at 585 and 640 nm (corresponding to the H^+-bound and—free forms of carboxy-SNARF-1-AM, respectively). […]

RPMI-8226 cells [3] = test: Mitochondrial membrane potential (safranin O); type: cell-based, human
Protocol: RPMI-8226 cells (2×10^7) were resuspended in buffer containing 130 mM KCl, 5 mM malate, 5 mM glutamate, 2 mM KPO4, 5 mM HEPES, pH 7.0 with 5 μM safranin O dye, in a stirred cuvette at 28° C. Fluorescence was measured at 495 nm excitation, 586 nm emission on a RF-5301PC spectrofluorophotometer (Shimadzu, Japan). Safranin O fluorescence was quenched following addition of 0.0025% digitonin as the dye accumulates in active mitochondria (Fiskum et al., Methods Enzymol. 322:222-234, 2000). Depolarization of the mitochondrial inner membrane caused a shift of safranin O localization from mitochondria to cytoplasm, evident as increased fluorescence.

cellular O2 consumption = test: Cellular O2 consumption; type: cell-based; conditions: compared to antimycin A3

Compound	sensitivity of primary lymphoid and myeloid bone marrow cell subpopulations [1]	glycolysis (depletion of glucose from culture media, reduction in intracellular pH) (RPMI-8226 cells [2])	acute changes in mitochondrial membrane potential (RPMI-8226 cells [3])	effect on cellular O2 consumption (cellular O2 consumption)
2-methoxy antimycin A [2-OMeA]	insensitive	stimulated glycolysis	No acute changes	–
CCCC[C@H]1C(=O)OC(C)[C@H](NC(=O)c2cccc(NC=O)c2OC)C(=O)O[C@@H](C)C1OC(=O)CC(C)C (stereo partly shown) [2-OMeA3, Antimycin A3 methyl ether]	–	–	–	negligible effect

From US20050239873A1 (priority 1999, published 2005)
